Test results: ChEMBL document CHEMBL1147087, “An antidepressant that extends lifespan in adult Caenorhabditis elegans” (Nature, 2007)

How the values were obtained:
Format in all cases: functional
[1] = system: Caenorhabditis elegans; experiment: Effect on life span of Caenorhabditis elegans daf16(mu86) mutant at 50 uM
[2] = system: Caenorhabditis elegans; experiment: Effect on life span of Caenorhabditis elegans eat2(ad1116) mutant at 50 uM
[3] = system: Caenorhabditis elegans; experiment: Effect on life span of Caenorhabditis elegans ser3(ok2007) mutant at 50 uM
[4] = system: Caenorhabditis elegans; experiment: Effect on life span of Caenorhabditis elegans ser4(ok512) mutant at 50 uM
[5] = system: Caenorhabditis elegans; experiment: Effect on life span of Caenorhabditis elegans ser7(tm1325) mutant at 50 uM
[6] = system: Caenorhabditis elegans; experiment: (§1) Effect on life span of Caenorhabditis elegans N2 treated on day 5 at 50 uM
[7] = system: Caenorhabditis elegans; experiment: Effect on life span of Caenorhabditis elegans at 100 uM
[8] = system: Caenorhabditis elegans; experiment: Effect on life span of Caenorhabditis elegans at 50 uM
[9] = system: Caenorhabditis elegans; experiment: Effect on life span of Caenorhabditis elegans N2 treated on day 1 at 50 uM
[10] = system: Caenorhabditis elegans; experiment: Effect on life span of diet restricted Caenorhabditis elegans N2 at 50 uM
[11] = system: Caenorhabditis elegans; experiment: as §1; remark: listed apart in the source
[12] = system: Caenorhabditis elegans; experiment: Effect on life span of Caenorhabditis elegans clk1([…]) mutant at 50 uM
[13] = system: Caenorhabditis elegans; experiment: Effect on life span of Caenorhabditis elegans daf2(e1370) mutant at 50 uM
[14] = system: Caenorhabditis elegans; experiment: Effect on life span of Caenorhabditis elegans mod1(ok103) mutant at 50 uM
[15] = system: Caenorhabditis elegans; experiment: Effect on life span of Caenorhabditis elegans mod5(n3314) mutant at 50 uM
[16] = system: Caenorhabditis elegans; experiment: Effect on life span of Caenorhabditis elegans ser1(ok345) mutant at 50 uM
[17] = system: Caenorhabditis elegans; experiment: Effect on life span of Caenorhabditis elegans ser2(pk1357) mutant at 50 uM
[18] = system: Caenorhabditis elegans; experiment: Effect on life span of Caenorhabditis elegans tph(mg280) mutant at 50 uM
[19] = system: Caenorhabditis elegans; experiment: Effect on life span of Caenorhabditis elegans N2 from L1 stage at 2 uM
[20] = system: Caenorhabditis elegans; experiment: Effect on life span of Caenorhabditis elegans N2 from L1 stage at 10 uM
[21] = system: Caenorhabditis elegans; experiment: Effect on life span of Caenorhabditis elegans N2 from L1 stage at 100 uM
[22] = system: Caenorhabditis elegans; experiment: Effect on life span of Caenorhabditis elegans N2 from L1 stage at 200 uM
[23] = system: Caenorhabditis elegans; experiment: Effect on life span of Caenorhabditis elegans N2 treated on day 1 at 2 uM
[24] = system: Caenorhabditis elegans; experiment: Effect on life span of Caenorhabditis elegans N2 treated on day 1 at 10 uM
[25] = system: Caenorhabditis elegans; experiment: Effect on life span of Caenorhabditis elegans N2 treated on day 1 at 100 uM
[26] = system: Caenorhabditis elegans; experiment: Effect on life span of Caenorhabditis elegans N2 treated on day 1 at 200 uM
[27] = system: Caenorhabditis elegans; experiment: Effect on life span of Caenorhabditis elegans daf16 mutant at 50 uM
[28] = system: Caenorhabditis elegans; experiment: Effect on life span of Caenorhabditis elegans daf2 mutant at 50 uM
[29] = system: Caenorhabditis elegans; experiment: Effect on life span of Caenorhabditis elegans eat2 mutant at 50 uM
[30] = system: Caenorhabditis elegans; experiment: Effect on life span of Caenorhabditis elegans clk1 mutant at 50 uM
[31] = system: Caenorhabditis elegans; experiment: Effect on life span of Caenorhabditis elegans N2 at 50 uM
[32] = system: Caenorhabditis elegans; experiment: Effect on life span of Caenorhabditis elegans N2 at 10 uM
[33] = system: Caenorhabditis elegans; experiment: Effect on life span of Caenorhabditis elegans N2 at 2 uM
[34] = system: Caenorhabditis elegans; experiment: Effect on life span of Caenorhabditis elegans N2 at 250 uM
[35] = system: Caenorhabditis elegans; experiment: Effect on life span of Caenorhabditis elegans tph1 mutant at 50 uM
[36] = system: Caenorhabditis elegans; experiment: Effect on life span of Caenorhabditis elegans tph1 mutant at 250 uM
[37] = system: Caenorhabditis elegans; experiment: Effect on life span of Caenorhabditis elegans mod5 mutant at 50 uM
[38] = system: Caenorhabditis elegans; experiment: Effect on life span of Caenorhabditis elegans ser1 mutant at 50 uM
[39] = system: Caenorhabditis elegans; experiment: Effect on life span of Caenorhabditis elegans ser2 mutant at 50 uM
[40] = system: Caenorhabditis elegans; experiment: Effect on life span of Caenorhabditis elegans ser3 mutant at 50 uM
[41] = system: Caenorhabditis elegans; experiment: Effect on life span of Caenorhabditis elegans ser3 mutant at 10 uM
[42] = system: Caenorhabditis elegans; experiment: Effect on life span of Caenorhabditis elegans ser3 mutant at 2 uM
[43] = system: Caenorhabditis elegans; experiment: Effect on life span of Caenorhabditis elegans ser3 mutant at 250 uM
[44] = system: Caenorhabditis elegans; experiment: Effect on life span of Caenorhabditis elegans ser4 mutant at 50 uM
[45] = system: Caenorhabditis elegans; experiment: Effect on life span of Caenorhabditis elegans ser4 mutant at 2 uM
[46] = system: Caenorhabditis elegans; experiment: Effect on life span of Caenorhabditis elegans ser4 mutant at 250 uM
[47] = system: Caenorhabditis elegans; experiment: Effect on life span of Caenorhabditis elegans ser7 mutant at 50 uM
[48] = system: Caenorhabditis elegans; experiment: Effect on life span of Caenorhabditis elegans mod1 mutant at 50 uM
[49] = system: Caenorhabditis elegans; experiment: Effect on life span of Caenorhabditis elegans ser3(ad1774) mutant at 50 uM
[50] = system: Caenorhabditis elegans; experiment: Effect on life span of Caenorhabditis elegans N2 from L1 stage at 50 uM
[51] = system: Caenorhabditis elegans; experiment: Effect on life span of Caenorhabditis elegans at 10 uM
[52] = system: Caenorhabditis elegans; experiment: Effect on life span of Caenorhabditis elegans at 200 uM
[53] = system: Caenorhabditis elegans; experiment: Effect on life span of Caenorhabditis elegans at 250 uM
[54] = system: Caenorhabditis elegans; experiment: Effect on life span of Caenorhabditis elegans N2 treated on day 5 at 10 uM
[55] = system: Caenorhabditis elegans; experiment: Effect on life span of Caenorhabditis elegans daf16 mutant at 10 uM
[56] = system: Caenorhabditis elegans; experiment: Effect on life span of Caenorhabditis elegans daf2 mutant at 10 uM
[57] = system: Caenorhabditis elegans; experiment: Effect on life span of Caenorhabditis elegans eat2 mutant at 10 uM
[58] = system: Caenorhabditis elegans; experiment: Effect on life span of Caenorhabditis elegans clk1 mutant at 10 uM
[59] = system: Caenorhabditis elegans; experiment: Effect on life span of Caenorhabditis elegans tph1 mutant at 10 uM
[60] = system: Caenorhabditis elegans; experiment: Effect on life span of Caenorhabditis elegans mod5 mutant at 10 uM
[61] = system: Caenorhabditis elegans; experiment: Effect on life span of Caenorhabditis elegans ser1 mutant at 10 uM
[62] = system: Caenorhabditis elegans; experiment: Effect on life span of Caenorhabditis elegans ser2 mutant at 10 uM
[63] = system: Caenorhabditis elegans; experiment: Effect on life span of Caenorhabditis elegans ser4 mutant at 10 uM
[64] = system: Caenorhabditis elegans; experiment: Effect on life span of Caenorhabditis elegans ser7 mutant at 10 uM
[65] = system: Caenorhabditis elegans; experiment: Effect on life span of Caenorhabditis elegans mod1 mutant at 10 uM
[66] = system: Caenorhabditis elegans; experiment: Increase in life span of Caenorhabditis elegans
[67] = system: Caenorhabditis elegans; experiment: Effect on life span of Caenorhabditis elegans at 1000 uM
[68] = system: Caenorhabditis elegans; experiment: Effect on life span of Caenorhabditis elegans at 3000 uM

CN1CCC(=C2c3ccccc3C=Cc3ccccc32)CC1 [CYPROHEPTADINE]
Activity [1]: 6% | Activity [2]: 4% | Activity [3]: -4% | Activity [4]: 16% | Activity [5]: 54% | Activity [6]: 7% | Activity [7]: 17% | Activity [8]: 19% | Activity [9]: 33% | Activity [10]: 9%

CN1CCN2c3ccccc3Cc3ccccc3C2C1 (centres undefined) [MIANSERIN]
Activity [11]: 1% | Activity [12]: 3% | Activity [1]: 14% | Activity [13]: 11% | Activity [2]: 2% | Activity [14]: 25% | Activity [15]: 2% | Activity [16]: 38% | Activity [17]: 19% | Activity [3]: -2% | Activity [4]: 7% | Activity [5]: 60% | Activity [18]: 0% | Activity [19]: 8% | Activity [20]: 9% | Activity [21]: -4% | Activity [22]: 5% | Activity [23]: 13% | Activity [24]: 18% | Activity [25]: 13% | Activity [26]: -4% | Activity [27]: 12% | Activity [28]: 16% | Activity [29]: -4% | Activity [30]: 10% | Activity [6]: 6% | Activity [8]: 25% | Activity [31]: 48% | Activity [32]: 31% | Activity [33]: 19% | Activity [34]: -17% | Activity [35]: 10% | Activity [36]: -1% | Activity [37]: 14% | Activity [38]: 53% | Activity [39]: 19% | Activity [40]: -5% | Activity [41]: -2% | Activity [42]: -3% | Activity [43]: -1% | Activity [44]: 7% | Activity [45]: 6% | Activity [46]: -20% | Activity [47]: 50% | Activity [48]: 29% | Activity [49]: 3% | Activity [9]: 31% | Activity [10]: 4% | Activity [50]: 10%

CN(C)Cc1c[nH]c2ccccc12 [GRAMINE]
Activity [8]: 2% | Activity [51]: 3%

CCCN(CCC)C1CCc2cccc(O)c2C1 (centres undefined) [8-OH-DPAT]
Activity [52]: -13% | Activity [7]: 8% | Activity [8]: 3%

COc1ccccc1N1CCN(CCCCN2C(=O)c3ccccc3C2=O)CC1 [NAN-190]
Activity [7]: 2% | Activity [8]: -11%

O=C1c2ccccc2S(=O)(=O)N1CCCCN1CCN(c2ncccn2)CC1 [IPSAPIRONE]
Activity [7]: 0% | Activity [8]: 3%

CNCCCN1c2ccccc2CCc2ccccc21 [DESIPRAMINE]
Activity [52]: 3% | Activity [8]: -2% | Activity [51]: -6%

CN[C@H]1CC[C@@H](c2ccc(Cl)c(Cl)c2)c2ccccc21 [SERTRALINE]
Activity [8]: -76% | Activity [53]: -80%

CSc1ccc2c(c1)C(N1CCN(C)CC1)Cc1ccccc1S2 (centres undefined) [METITEPINE]
Activity [54]: -1% | Activity [55]: 10% | Activity [56]: 21% | Activity [57]: -3% | Activity [58]: 10% | Activity [51]: 25% | Activity [32]: 25% | Activity [59]: -2% | Activity [60]: 8% | Activity [61]: 38% | Activity [62]: 17% | Activity [41]: -9% | Activity [43]: -1% | Activity [63]: 8% | Activity [64]: 40% | Activity [65]: 21%

N[C@@H](Cc1ccccc1)C(=O)O [PHENYLALANINE]
Activity [52]: -2% | Activity [8]: -1%

CN(C)CCCN1c2ccccc2CCc2ccccc21 [IMIPRAMINE]
Activity [52]: -2% | Activity [8]: -1% | Activity [51]: -3%

c1cc2c(c(N3CCNCC3)c1)OCCO2 [ELTOPRAZINE]
Activity [7]: -8% | Activity [8]: -12%

Clc1cccc(N2CCNCC2)c1 [CHLOROPHENYLPIPERAZINE]
Activity [8]: -26%

O=C1CC(c2cccc([N+](=O)[O-])c2)CC2=C1C(c1ccccc1)Nc1ccccc1N2 (centres undefined)
Activity [66]: 20%

Fc1ccc([C@@H]2CCNC[C@H]2COc2ccc3c(c2)OCO3)cc1 [PAROXETINE]
Activity [8]: -42% | Activity [53]: -76%

NCCc1c[nH]c2ccc(O)cc12 [SEROTONIN]
Activity [67]: -8% | Activity [68]: -6%

CNCCC(Oc1ccc(C(F)(F)F)cc1)c1ccccc1 (centres undefined) [FLUOXETINE]
Activity [52]: -48% | Activity [7]: -11% | Activity [8]: -12%

COc1ccccc1N1CCN(CCCCN2C(=O)CCC2=O)CC1
Activity [7]: -4% | Activity [8]: 6%

CN1CCN2c3ncccc3Cc3ccccc3C2C1 (centres undefined) [MIRTAZAPINE]
Activity [7]: 5% | Activity [8]: 20%
